Here are results for 1 compound from ChEMBL document CHEMBL4765450, “The components and activities analysis of a novel anticoagulant candidate dHG-5” (Eur J Med Chem, 2020).

The source made the active and inactive calls. The rule behind the calls is not given here.

The target of experiment [1] is T1, Coagulation factor VII (Homo sapiens) (UniProt P08709).
T1 sequence (whole entry): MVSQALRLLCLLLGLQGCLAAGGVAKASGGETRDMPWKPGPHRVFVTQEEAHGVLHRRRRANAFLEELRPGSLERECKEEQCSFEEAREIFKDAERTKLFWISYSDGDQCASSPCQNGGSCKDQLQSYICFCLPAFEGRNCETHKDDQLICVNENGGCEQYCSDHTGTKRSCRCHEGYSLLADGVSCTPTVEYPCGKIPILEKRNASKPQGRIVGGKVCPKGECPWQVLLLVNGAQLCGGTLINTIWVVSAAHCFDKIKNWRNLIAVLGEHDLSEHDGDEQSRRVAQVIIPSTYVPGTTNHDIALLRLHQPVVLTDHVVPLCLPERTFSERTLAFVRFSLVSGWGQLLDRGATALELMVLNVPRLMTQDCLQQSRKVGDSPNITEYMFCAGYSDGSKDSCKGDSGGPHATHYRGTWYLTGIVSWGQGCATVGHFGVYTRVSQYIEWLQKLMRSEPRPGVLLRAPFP
Put plainly: Inhibition of factor 7a (unknown origin) at IC50 using pefachrome factor VIIa as substrate preincubated for 1 min followed by chromogenic substrate addition and measured for 2 mins in presence of AT-III. Particulars: time 3.0 min.

Experiment [2] deals with Plasma. Put plainly: Anticoagulation activity in human plasma assessed as drug level causing 20 times doubling of APTT by measuring activity potency of oligosaccharides multiplied by the percentage of oligosaccharides in dHG-5 preincubated for 2 mins followed by APTT reagent and measured after 3 mins by coagulometric method relative to dHG-5. Conditions: time 5 min. Format: functional.

The target of experiment [3] is Prothrombin (Homo sapiens) (UniProt P00734). Put plainly: Inhibition of factor 2a (unknown origin) at IC50 preincubated for 1 min followed by chromogenic substrate addition and measured for 2 mins. Conditions: time 3.0 min.
Experiment [4] deals with Coagulation factor XI (Homo sapiens) (UniProt P03951). Put plainly: Inhibition of factor 11a (unknown origin) at IC50 using S-2366 as substrate preincubated for 1 min followed by chromogenic substrate addition and measured for 2 mins. Conditions: time 3.0 min.
Chain of Coagulation factor XI (Homo sapiens) (P03951 19-387 limits assumed): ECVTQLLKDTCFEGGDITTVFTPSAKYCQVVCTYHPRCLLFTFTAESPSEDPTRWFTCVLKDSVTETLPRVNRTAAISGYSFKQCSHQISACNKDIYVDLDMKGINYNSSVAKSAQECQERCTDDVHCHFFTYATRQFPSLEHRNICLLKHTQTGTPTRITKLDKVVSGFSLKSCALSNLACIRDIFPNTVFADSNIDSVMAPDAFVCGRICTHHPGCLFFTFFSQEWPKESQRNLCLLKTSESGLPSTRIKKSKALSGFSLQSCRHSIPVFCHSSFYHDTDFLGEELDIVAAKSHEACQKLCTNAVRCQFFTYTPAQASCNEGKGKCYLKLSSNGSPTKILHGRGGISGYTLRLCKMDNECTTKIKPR
Chain of Coagulation factor XI (Homo sapiens) (P03951 388-625 limits assumed): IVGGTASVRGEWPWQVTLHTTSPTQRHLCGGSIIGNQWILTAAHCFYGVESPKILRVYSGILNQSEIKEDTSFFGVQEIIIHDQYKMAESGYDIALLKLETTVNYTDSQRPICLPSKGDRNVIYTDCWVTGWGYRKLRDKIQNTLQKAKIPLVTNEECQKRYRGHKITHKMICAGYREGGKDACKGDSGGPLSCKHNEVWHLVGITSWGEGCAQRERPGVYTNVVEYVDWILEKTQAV
Experiment [5] has as its system Rattus norvegicus. Put plainly: Antithrombotic activity in thromboplastin and stasis-induced Sprague-Dawley rat deep venous thrombosis model assessed as reduction in venous thrombosis by measuring activity potency of oligosaccharides multiplied by the percentage of oligosaccharides in dHG-5 at 1.84 mg/kg, sc administered 1 hr prior to thromboplastin addition for 20 secs followed by establishment of stasis for 20 mins relative to dHG-5. Conditions: time 80.33 min, 1.339 h. Format: functional.

Experiment [6] has as its target Coagulation factor XI (Homo sapiens) (UniProt P03951). Put plainly: Inhibition of factor 11a (unknown origin) at IC90 using S-2366 as substrate preincubated for 1 min followed by chromogenic substrate addition and measured for 2 mins in presence of AT-III. Particulars: time 3.0 min.
Experiment [7] has as its target Coagulation factor X (Homo sapiens) (UniProt P00742). Put plainly: Inhibition of factor 10a (unknown origin) at IC50 preincubated for 1 min followed by chromogenic substrate addition and measured for 2 mins. Conditions: time 3.0 min.
Experiment [8] deals with Rattus norvegicus. Put plainly: Antithrombotic activity in thromboplastin and stasis-induced Sprague-Dawley rat deep venous thrombosis model assessed as reduction in venous thrombosis at 1.84 mg/kg, sc administered 1 hr prior to thromboplastin addition for 20 secs followed by establishment of stasis for 20 mins relative to dHG-5. Format: functional. Conditions: time 80.33 min, 1.339 h.

The target in experiment [9] is T2, Coagulation factor IX/VIII (Homo sapiens) (UniProt P00740+P00451). Put plainly: Inhibition of human citrated plasma iXase (factor 8a-factor 9a complex) preincubated for 2 mins followed by factor 10 addition and measured after 1 min by FXa chromogenic substrate SXa-11 based assay relative to dHG-5. Format: protein-complex assay. Conditions: time 3.0 min.
For experiment [10], the target named is Coagulation factor XI (Homo sapiens) (UniProt P03951). Put plainly: Inhibition of factor 11a (unknown origin) at IC50 using S-2366 as substrate preincubated for 1 min followed by chromogenic substrate addition and measured for 2 mins in presence of AT-III. Conditions: time 3.0 min.
Experiment [11] has as its target Coagulation factor X (Homo sapiens) (UniProt P00742). Put plainly: Inhibition of factor 10a (unknown origin) at IC50 preincubated for 1 min followed by chromogenic substrate addition and measured for 2 mins in presence of AT-III. Particulars: time 3.0 min.
Experiment [12] has as its target T1, Coagulation factor VII (Homo sapiens). Put plainly: Inhibition of factor 7a (unknown origin) at IC50 using pefachrome factor VIIa as substrate preincubated for 1 min followed by chromogenic substrate addition and measured for 2 mins. Particulars: time 3.0 min.
Experiment [13] addresses T3, Coagulation factor IX (Homo sapiens, UniProt P00740). Put plainly: Inhibition of factor 9a (unknown origin) binding to immobilized biotinylated oHG-11 by biolayer interferometry relative to dHG-5. (In general: Biolayer interferometry detects binding as a change in optical thickness at a sensor tip.)
In experiment [14] the target is T4, Coagulation factor XII (Homo sapiens) (UniProt P00748).
T4 sequence (whole entry): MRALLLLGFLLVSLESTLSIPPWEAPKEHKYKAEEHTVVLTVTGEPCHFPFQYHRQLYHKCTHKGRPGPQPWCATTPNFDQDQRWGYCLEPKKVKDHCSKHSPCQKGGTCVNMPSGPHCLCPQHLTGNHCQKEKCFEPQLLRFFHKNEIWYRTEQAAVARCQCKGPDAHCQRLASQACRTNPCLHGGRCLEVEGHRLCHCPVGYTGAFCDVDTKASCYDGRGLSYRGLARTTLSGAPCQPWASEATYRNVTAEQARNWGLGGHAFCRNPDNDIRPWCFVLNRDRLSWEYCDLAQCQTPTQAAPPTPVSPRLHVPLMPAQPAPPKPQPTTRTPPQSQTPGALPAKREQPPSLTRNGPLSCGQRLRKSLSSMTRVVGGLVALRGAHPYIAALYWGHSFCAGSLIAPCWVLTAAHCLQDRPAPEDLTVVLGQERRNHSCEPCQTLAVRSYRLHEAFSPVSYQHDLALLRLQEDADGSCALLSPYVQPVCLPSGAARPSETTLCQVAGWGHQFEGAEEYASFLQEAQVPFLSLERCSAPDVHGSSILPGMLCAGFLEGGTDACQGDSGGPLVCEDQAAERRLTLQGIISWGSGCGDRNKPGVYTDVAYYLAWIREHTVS
Put plainly: Inhibition of factor 12a (unknown origin) at IC50 using kallikrein chromogenic substrate preincubated for 1 min followed by chromogenic substrate addition and measured for 2 mins in presence of AT-III. Particulars: time 3.0 min.

The target of experiment [15] is Coagulation factor X (Homo sapiens) (UniProt P00742). Put plainly: Inhibition of factor 10a (unknown origin) at IC90 preincubated for 1 min followed by chromogenic substrate addition and measured for 2 mins in presence of AT-III relative to control. Conditions: time 3.0 min.
Chain of Coagulation factor X (Homo sapiens) (P00742 41-179 limits assumed): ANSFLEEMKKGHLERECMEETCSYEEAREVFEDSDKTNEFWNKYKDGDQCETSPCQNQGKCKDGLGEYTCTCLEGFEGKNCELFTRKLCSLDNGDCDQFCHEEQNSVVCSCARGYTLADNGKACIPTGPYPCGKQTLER
Chain of Coagulation factor X (Homo sapiens) (P00742 235-488 limits assumed): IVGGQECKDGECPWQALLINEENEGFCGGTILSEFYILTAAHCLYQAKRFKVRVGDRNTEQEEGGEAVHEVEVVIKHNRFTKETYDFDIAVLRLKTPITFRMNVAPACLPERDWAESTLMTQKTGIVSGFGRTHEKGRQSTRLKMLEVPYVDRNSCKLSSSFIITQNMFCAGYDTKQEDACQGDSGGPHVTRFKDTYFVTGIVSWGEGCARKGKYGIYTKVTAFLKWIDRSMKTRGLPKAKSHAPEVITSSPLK
The target of experiment [16] is T3, Coagulation factor IX. Put plainly: Inhibition of factor 9a (unknown origin) binding to immobilized biotinylated oHG-11 assessed as activity potency of oligosaccharides multiplied by the percentage of oligosaccharides in dHG-5 by biolayer interferometry relative to dHG-5.
For experiment [17], the target named is Prothrombin (Homo sapiens) (UniProt P00734). Put plainly: Inhibition of factor 2a (unknown origin) at IC90 preincubated for 1 min followed by chromogenic substrate addition and measured for 2 mins in presence of AT-III. Particulars: time 3.0 min.
Experiment [18] addresses T4, Coagulation factor XII (Homo sapiens). Put plainly: Inhibition of factor 12a (unknown origin) at IC50 using kallikrein chromogenic substrate preincubated for 1 min followed by chromogenic substrate addition and measured for 2 mins. Particulars: time 3.0 min.
In experiment [19] the target is Prothrombin (Homo sapiens) (UniProt P00734). Put plainly: Inhibition of factor 2a (unknown origin) at IC50 preincubated for 1 min followed by chromogenic substrate addition and measured for 2 mins in presence of AT-III. Conditions: time 3.0 min.
The target in experiment [20] is T2, Coagulation factor IX/VIII (Homo sapiens). Put plainly: Inhibition of human citrated plasma iXase (factor 8a-factor 9a complex) assessed as activity potency of oligosaccharides multiplied by the percentage of oligosaccharides in dHG-5 preincubated for 2 mins followed by factor 10 addition and measured after 1 min by FXa chromogenic substrate SXa-11 based assay relative to dHG-5. Format: protein-complex assay. Conditions: time 3.0 min.

The subject of experiment [21] is Plasma. Put plainly: Anticoagulation activity in human plasma assessed as drug level causing 20 times doubling of APTT preincubated for 2 mins followed by APTT reagent and measured after 3 mins by coagulometric method relative to dHG-5. Conditions: time 5 min. Format: functional.

T3 sequence (P00740 47-191 limits assumed): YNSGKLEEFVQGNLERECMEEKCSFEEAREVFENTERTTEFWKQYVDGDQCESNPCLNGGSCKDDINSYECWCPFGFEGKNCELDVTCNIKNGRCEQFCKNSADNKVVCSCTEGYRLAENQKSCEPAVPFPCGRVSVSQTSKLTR
T3 sequence (P00740 227-461 limits assumed): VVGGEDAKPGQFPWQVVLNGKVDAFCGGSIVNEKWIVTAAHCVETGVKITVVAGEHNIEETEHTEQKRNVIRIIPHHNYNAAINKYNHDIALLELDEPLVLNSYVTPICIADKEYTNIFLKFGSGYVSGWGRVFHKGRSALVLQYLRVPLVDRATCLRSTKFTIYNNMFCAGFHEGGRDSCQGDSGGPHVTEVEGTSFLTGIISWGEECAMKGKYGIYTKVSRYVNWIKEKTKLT

Take `CC(=O)N[C@H]1[C@H](O[C@@H]([C@H](O[C@@H]2O[C@@H](C)[C@@H](OS(=O)(=O)[O-])[C@@H](OS(=O)(=O)O)[C@@H]2O)[C@@H](O)CO)[C@H](O)C(=O)[O-])O[C@H](COS(=O)(=O)[O-])[C@H](OS(=O)(=O)[O-])[C@@H]1O[C@@H]1O[C@H](C(=O)[O-])[C@@H](O[C@@H]2O[C@H](COS(=O)(=O)[O-])[C@H](OS(=O)(=O)[O-])[C@H](O[C@@H]3O[C@H](C(=O)[O-])[C@@H](O[C@@H]4O[C@H](COS(=O)(=O)[O-])[C@H](OS(=O)(=O)[O-])[C@H](O[C@@H]5O[C@H](C(=O)[O-])[C@@H](O[C@@H]6O[C@H](COS(=O)(=O)[O-])[C@H](OS(=O)(=O)[O-])[C@H](O[C@@H]7O[C@H](C(=O)[O-])[C@@H](O[C@@H]8O[C@H](COS(=O)(=O)[O-])[C@H](OS(=O)(=O)[O-])[C@H](O[C@@H]9O[C@H](C(=O)[O-])[C@@H](O[C@@H]%10O[C@H](COS(=O)(=O)[O-])[C@H](OS(=O)(=O)[O-])[C@H](O[C@@H]%11O[C@H](C(=O)[O-])[C@@H](O[C@@H]%12O[C@H](COS(=O)(=O)[O-])[C@H](OS(=O)(=O)[O-])[C@H](O[C@@H]%13OC(C(=O)O)=C[C@H](O[C@@H]%14O[C@@H](C)[C@@H](OS(=O)(=O)[O-])[C@@H](OS(=O)(=O)O)[C@@H]%14O)[C@H]%13O)[C@H]%12NC(C)=O)[C@H](O[C@@H]%12O[C@@H](C)[C@@H](OS(=O)(=O)[O-])[C@@H](OS(=O)(=O)O)[C@@H]%12O)[C@H]%11O)[C@H]%10NC(C)=O)[C@H](O[C@@H]%10O[C@@H](C)[C@@H](OS(=O)(=O)[O-])[C@@H](OS(=O)(=O)O)[C@@H]%10O)[C@H]9O)[C@H]8NC(C)=O)[C@H](O[C@@H]8O[C@@H](C)[C@@H](OS(=O)(=O)[O-])[C@@H](OS(=O)(=O)O)[C@@H]8O)[C@H]7O)[C@H]6NC(C)=O)[C@H](O[C@@H]6O[C@@H](C)[C@@H](OS(=O)(=O)[O-])[C@@H](OS(=O)(=O)O)[C@@H]6O)[C@H]5O)[C@H]4NC(C)=O)[C@H](O[C@@H]4O[C@@H](C)[C@@H](OS(=O)(=O)[O-])[C@@H](OS(=O)(=O)O)[C@@H]4O)[C@H]3O)[C@H]2NC(C)=O)[C@H](O[C@@H]2O[C@@H](C)[C@@H](OS(=O)(=O)[O-])[C@@H](OS(=O)(=O)O)[C@@H]2O)[C@H]1O.[Na+].[Na+].[Na+].[Na+].[Na+].[Na+].[Na+].[Na+].[Na+].[Na+].[Na+].[Na+].[Na+].[Na+].[Na+].[Na+].[Na+].[Na+].[Na+].[Na+].[Na+].[Na+].[Na+].[Na+].[Na+].[Na+].[Na+].[Na+].[Na+]`: the inhibition entry in [1], in [3], in [4], in experiment [7], in experiment [10] and in experiment [11] was “inactive” in each case. In addition, the inhibition entry in experiment [14], in [15], in [18] and in experiment [19] was “inactive” throughout. Moreover, the Ratio in the experiment with Plasma [2] turned out to be 15.39 U; with Rattus norvegicus [5], 16.12 U; in the experiment on Rattus norvegicus [8], 244.26 U; in [9] it was 384 U; at Coagulation factor IX [13], 177 U; at Coagulation factor IX [16], 11.7 U. For the same compound, the Ratio in experiment [20] is 25.4 U; in the experiment on Plasma [21], 232.47 U. Moreover, the inhibition entry in experiment [6] and in experiment [17] was “Active” each time. The “inhibition (active/not active)” value in experiment [12] is “inactive”.
